Measured values reported in patent US9302999B2, “Substituted triazoles as herbicides” (E. I. DU PONT DE NEMOURS AND COMPANY, priority 2012, dated 2016).

Legend:
Assay type in all cases: in vivo
[1] = tested on: lambsquarters (Chenopodium album); assay: Test F pre-/postemergence: lambsquarters; details: Preemergence
Procedure, shortened: (§1)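 Preemergence treatment of seeds sown in silt loam soil, and postemergence treatment of plants 2–18 cm tall (1- to 4-leaf stage), with compounds in non-phytotoxic solvent plus surfactant. Greenhouse 14–21 days, then visual rating versus controls on 0–100 scale (100 = complete control).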

[2] = tested on: surinam grass (Brachiaria decumbens); assay: Test F pre-/postemergence: surinam grass; details: Preemergence, scale 0 to 100, 0 no effect, 100 complete control
Procedure, shortened: as §1

[3] = tested on: barnyardgrass (Echinochloa crus-galli); assay: Test F pre-/postemergence: barnyardgrass
Text: Seeds of plant species selected from corn (Zea mays), soybean (Glycine max), velvetleaf (Abutilon theophrasti), lambsquarters (Chenopodium album), poinsettia, wild (wild poinsettia, Euphorbia heterophylla), pigweed, palmer (palmer pigweed, Amaranthus palmeri), waterhemp (common waterhemp, Amaranthus rudis), surinam grass (Brachiaria decumbens), crabgrass, Brazil (Brazilian crabgrass, Digitaria horizontalis), panicum, fall (fall panicum Panicum dichotomiflorum), crabgrass, large (large crabgrass, Digitaria sanguinalis), foxtail, giant (giant foxtail, Setaria faberii), foxtail, green (green foxtail Setaria viridis), goosegrass (Eleusine indica), ragweed (common ragweed, Ambrosia elatior), barnyardgrass (Echinochloa crus-galli), sandbur (southern sandbur, Cenchrus echinatus), arrowleaf sida (Sida rhombifolia), ryegrass, Italian (Italian ryegrass, Lolium multiflorum), dayflower, VA (Virginia (VA) dayflower, Commelina virginica), field bindweed (Convolvulus arvensis), cocklebur (common cocklebur, Xanthium strumarium), morningglory (Ipomoea coccinea), nightshade (eastern black nightshade, Solanum ptycanthum), kochia (Kochia scoparia), nutsedge, yellow (yellow nutsedge, Cyperus esculentus), johnsongrass (Sorghum halepense), smartweed (ladysthumb smartweed, Polygonum persicaria), and beggarticks (hairy beggarticks, Bidens pilosa), were planted into a silt loam soil and treated preemergence with test chemicals formulated in a non-phytotoxic solvent mixture which included a surfactant. At the same time, plants selected from these crop and weed species and also pigweed (Amaranthus retroflexus), waterhemp_RES1 (ALS/Triazine resistant common waterhemp, Amaranthus rudis) and waterhemp_RES2 (ALS/HPPD resistant common waterhemp, Amaranthus rudis) were planted in pots containing a planting medium comprising spaghnum peat moss, vermiculite, wetting agent and starter nutrients treated with postemergence applications of some of the test chemicals formulated in the same manner. Plants ranged in height from 2 to 18 cm for postemergence treatments (1- to 4-leaf stage).
Treated plants and controls were maintained in a greenhouse for 14 to 21 days, after which time all species were compared to controls and visually evaluated. Plant response ratings, summarized in Table E, are based on a scale of 0 to 100 where 0 is no effect and 100 is complete control. A dash (-) response means no test result.

[4] = tested on: dayflower, VA (Virginia (VA) dayflower, Commelina virginica); assay: Test F pre-/postemergence: dayflower, VA
Procedure, shortened: as §1

[5] = tested on: field bindweed (Convolvulus arvensis); assay: Test F pre-/postemergence: field bindweed
Procedure, shortened: as §1

[6] = Postemergence, 4 g ai/ha, scale 0 to 100
[7] = Postemergence, 8 g ai/ha, scale 0 to 100
[8] = Postemergence, 16 g ai/ha, scale 0 to 100
[9] = Postemergence, 31 g ai/ha, scale 0 to 100
[10] = Postemergence, 62 g ai/ha, scale 0 to 100
[11] = Preemergence, 4 g ai/ha, scale 0 to 100, 0 no effect, 100 complete control
[12] = Preemergence, 8 g ai/ha, scale 0 to 100, 0 no effect, 100 complete control
[13] = Preemergence, 16 g ai/ha, scale 0 to 100 (0 no effect, 100 complete control)
[14] = Preemergence, 31 g ai/ha, scale 0 to 100 (0 no effect, 100 complete control)
[15] = Preemergence, 62 g ai/ha, scale 0 to 100

Cc1nn(-c2ccc(C(F)(F)F)c(F)c2)nc1Cc1ccnc(C(F)(F)F)c1 [Compound 162]
Plant response rating, Lambsquarters ([1]; 4 g ai/ha, scale 0 to 100, 0 no effect, 100 complete control): 0
Plant response rating, Lambsquarters ([1]; 8 g ai/ha, scale 0 to 100, 0 no effect, 100 complete control): 0
Plant response rating, Lambsquarters ([1]; 16 g ai/ha, scale 0 to 100 (0 no effect, 100 complete control)): 98
Plant response rating, Lambsquarters ([1]; 31 g ai/ha, scale 0 to 100 (0 no effect, 100 complete control)): 98
Plant response rating, Lambsquarters ([1]; 62 g ai/ha, scale 0 to 100): 98
Plant response rating, Surinam Grass ([2]; 4 g ai/ha): 0
Plant response rating, Surinam Grass ([2]; 8 g ai/ha): 0
Plant response rating, Barnyardgrass [3, 6]: 10
Plant response rating, Barnyardgrass [3, 7]: 10
Plant response rating, Barnyardgrass [3, 8]: 10
Plant response rating, Barnyardgrass [3, 9]: 25
Plant response rating, Barnyardgrass [3, 10]: 35
Plant response rating, Barnyardgrass [3, 11]: 0
Plant response rating, Barnyardgrass [3, 12]: 20
Plant response rating, Barnyardgrass [3, 13]: 20
Plant response rating, Barnyardgrass [3, 14]: 30
Plant response rating, Barnyardgrass [3, 15]: 30
Plant response rating, Dayflower, VA [4, 6]: 5
Plant response rating, Dayflower, VA [4, 7]: 15
Plant response rating, Dayflower, VA [4, 8]: 20
Plant response rating, Dayflower, VA [4, 9]: 20
Plant response rating, Dayflower, VA [4, 10]: 25
Plant response rating, Dayflower, VA [4, 11]: 0
Plant response rating, Dayflower, VA [4, 12]: 35
Plant response rating, Dayflower, VA [4, 13]: 35
Plant response rating, Dayflower, VA [4, 14]: 35
Plant response rating, Dayflower, VA [4, 15]: 65
Plant response rating, Field Bindweed [5, 6]: 20
Plant response rating, Field Bindweed [5, 7]: 20
Plant response rating, Field Bindweed [5, 8]: 20
Plant response rating, Field Bindweed [5, 9]: 30
Plant response rating, Field Bindweed [5, 10]: 50
Plant response rating, Field Bindweed [5, 11]: 0
Plant response rating, Field Bindweed [5, 12]: 0
Plant response rating, Field Bindweed [5, 13]: 5
Plant response rating, Field Bindweed [5, 14]: 5
Plant response rating, Field Bindweed [5, 15]: 5
